Consider 27 compounds from patent US11168052B2, “Carbamate derivative compounds, processes for preparing them and their uses” (BIO-PHARM SOLUTIONS CO., LTD., priority 2016, dated 2021).

For assay [1], the system named is MES (electroshock) seizure in mice. The assay can be described thus: Anti-epilepsy activity, MES test in mouse. Format: in vivo, ICR mice. The method, then:
(§1) In the MES test (Ref., G. Villetti et al. Neuropharmacology 40(2001) 866-878), an electrical stimulus (mice: 50 mA, 60 Hz, 0.2 sec, and rats: 150 mA, 60 Hz, 0.2 sec in the test animal) supplied by an 11A Shocker (IITC Life Science Company) was delivered through corneal electrodes. All mice or rats assigned to any electroshock at peak time were treated with each test compound sample which was dissolved in 20% tween 80 prepared by saline solvent applied orally before the test. […] Three doses of the test sample were administered orally to 9-18 animals (3-6 mice per dose) for evaluating the respective doses at which 50% of the animals were protected from seizure (ED50). The ED50 value (median effective dose) was calculated by Litchfield and Wicoxon log-probit method which is a dose-response relationship. Experimental animals, male ICR mice and male SD rats, were purchased from OrientBio, Samtako, or Nara Biotech, Korea, and housed in cages (4-5 mice or 3 rats per cage) for 4-5 days. The range of mice body weight was between 19 and 25 grams and range of rats body weight was between 100 and 130 grams.

Assay [2] has as its system CFA-induced pain model in rats. The experiment in a line: Antiallodynic activity on Complete Freund's Adjuvant (CFA)-induced inflammatory pain model. Format: in vivo, Sprague-Dawley rats. Particulars: 50 mg/kg intraperitoneally, von Frey threshold relative to sham, 0.5 hr after administration; for response vs control in vivo at 50 mg/kg: Rattus norvegicus, ip, read-out: Efficacy of 50 mg/kg(%). On the procedure: Male, Sprague-Dawley rats (210-250 g, Nara Bio, Korea) were habituated for 1 week before surgery and allowed free access to food and water throughout the experimentation. Room temperature and humidity were maintained at 24±2 and 50±10%, respectively.
CFA-induced inflammatory pain was induced by the procedure of Nagakura et al. (2003) and Gregory P. et al. (2010) with minor modifications. CFA (sigma, USA) was injected in the right plantar with a 100 ul volume under gaseous anesthesia with isoflurane. Sham controls were injected with 100 ul of saline, and preparation of the vehicle controls were identical to the group treated with compound, except for administration of vehicles without indentical to the vihecle control group.
Tactile sensitivity (Mechanical allodynia) was evaluated using von Frey monofilaments before and after treatment, and animals were include in the study only if the withdrawal threshold value was less than 4 g. One week after CFA injection, CFA-infused animals, sham-operated animal, and vehicle-operated animals were tested for tactile sensitivity with von Frey monofilaments, with 3 trials for each animal. All Animals were placed in a stainless steel mashe chamber and habituated for 30 min in the test cage. The tactile sensitivity for ipsilateral hind paw was measured using the up-and-down method (Dixon, 1980) with seven von Frey monofilaments (0.4, 1, 2, 4, 6, 8, and 15 g) to 3 trials. The tactile sensitivity test was followed by Dixon's method (Dixon, 1980). The 50% paw withdrawal threshold for each paw was calculated using the following formula: [Xth]log=[vFr]log+ky where [vFr] is the force of the last von Frey used, k=0.2249 which is the average interval (in log units) between the von Frey monofilaments, and y is a value that depends upon the pattern of withdrawal responses (Dixon, 1980).
Antiallodynic effect of compounds was evaluated at the dose of 50 mg/kg (n=4-6), intraperitoneally administrated in a volume of 5 ul/g bw in a vehicle of 30% (v/v) PEG or 20% (v/v) Tween 80. The test was performed peak time of efficacy (0.5 hr) after compound administration.
The relative values compared to the sham (% control) were calculated and shown in Table 5, which show an antiallodynic effect of Compound 1 on CFA-induced pain model in rats.

Assay [3] concerns MES (electroshock) seizure in rats. The assay can be described thus: Anti-epilepsy activity, MES test in rats. It is filed as in vivo, SD rats. Particulars: Rattus norvegicus, po. The method, then: as §1
Setting [4] is: po, read-out: MES test (po) efficacy %.

Turning to “8-chloro-2-hydroxy-1,2,3,4-tetrahydronaphthalen-1-yl carbamate (mixture of SR & RS) [Example 20]”, the “MES test (po) ED50” value in assay [1] worked out at 31.4 mg/kg. Besides, the “Efficacy of 50 mg/kg(%)” value in assay [2] is reported as 40.2%.

Turning to `NC(=O)O[C@@H]1CCc2cccc(Cl)c2[C@H]1O` [Example 4, (1R, 2R)-8-chloro-1-hydroxy-1,2,3,4-tetrahydronaphthalen-2-yl carbamate], it took a dose of 80.6 mg/kg to reach the 50% effect level in assay [1] (po) (ED50).

In the case of `NC(=O)O[C@@H]1CCc2ccc(Cl)cc2[C@@H]1O` [Example 6, (1S, 2R)-7-chloro-1-hydroxy-1,2,3,4-tetrahydronaphthalen-2-yl carbamate], the responders at 100 mg/kg in assay [1] (setting [4]) stood at 33.3%. Also, the response vs control in vivo at 50 mg/kg in assay [2] was determined as 26.8%.

With `NC(=O)O[C@H]1CCc2ccc(Cl)cc2[C@H]1O` [Example 7], the responders at 150 mg/kg in assay [1] (po, dose 150 mg/kg, read-out: MES test (po) efficacy %) is 100%. The response vs control in vivo at 50 mg/kg in assay [2] amounted to 28.6%.

In the case of `NC(=O)O[C@@H]1CCc2cc(Cl)ccc2[C@@H]1O` [Example 8, (1S, 2R)-6-chloro-1-hydroxy-1,2,3,4-tetrahydronaphthalen-2-yl carbamate], in assay [1] (setting [4]), the responders at 100 mg/kg worked out at 100%.

Consider `NC(=O)O[C@H]1CCc2cc(Cl)ccc2[C@H]1O` [Example 9, (1R, 2S)-6-chloro-1-hydroxy-1,2,3,4-tetrahydronaphthalen-2-yl carbamate], for which the response vs control in vivo at 50 mg/kg in assay [2] was 27.5%.

For the compound `NC(=O)O[C@@H]1CCc2cccc(I)c2[C@@H]1O` [Example 12, (1S, 2R)-1-hydroxy-8-iodo-1,2,3,4-tetrahydronaphthalen-2-yl carbamate], in assay [1] (setting [4]), the responders at 100 mg/kg worked out at 100%. Moreover, in assay [2], the response vs control in vivo at 50 mg/kg is 38.5%.

In the case of `NC(=O)O[C@H]1CCc2cccc(I)c2[C@H]1O` [Example 13, (1R, 2S)-1-hydroxy-8-iodo-1,2,3,4-tetrahydronaphthalen-2-yl carbamate], in assay [1] (setting [4]), the responders at 100 mg/kg worked out at 33.3%. The response vs control in vivo at 50 mg/kg in assay [2] was found to be 43.1%.

Consider `NC(=O)O[C@@H]1CCc2ccccc2[C@@H]1O` [Example 14, (1S, 2R)-1-hydroxy-1,2,3,4-tetrahydronaphthalen-2-yl carbamate], for which, in assay [1] (setting [4]), the responders at 100 mg/kg turned out to be 100%.

Turning to `NC(=O)O[C@H]1c2ccccc2CC[C@H]1O` [Example 16, (1S, 2R)-2-hydroxy-1,2,3,4-tetrahydronaphthalen-1-yl carbamate], in assay [1] (setting [4]), the responders at 100 mg/kg came out at 50%.

For the compound `NC(=O)O[C@H]1c2cc(Cl)ccc2CC[C@H]1O` [Example 21, (1S, 2R)-7-chloro-2-hydroxy-1,2,3,4-tetrahydronaphthalen-1-yl carbamate], in assay [1] (setting [4]), the responders at 100 mg/kg is 33.3%. Besides, the response vs control in vivo at 50 mg/kg in assay [2] was 28.9%.

Regarding `NC(=O)O[C@@H]1c2cc(Cl)ccc2CC[C@@H]1O` [Example 22, (1R, 2S)-7-chloro-2-hydroxy-1,2,3,4-tetrahydronaphthalen-1-yl carbamate], in assay [1] (setting [4]), the responders at 100 mg/kg turned out to be 100%. Moreover, the response vs control in vivo at 50 mg/kg in assay [2] came out at 35.7%.

As for `NC(=O)O[C@H]1c2ccc(Cl)cc2CC[C@H]1O` [Example 23, (1S, 2R)-6-chloro-2-hydroxy-1,2,3,4-tetrahydronaphthalen-1-yl carbamate], in assay [1] (setting [4]), the responders at 100 mg/kg was determined as 33.3%.

Regarding `NC(=O)O[C@H]1c2c(I)cccc2CC[C@H]1O` [Example 27, (1S, 2R)-2-hydroxy-8-iodo-1,2,3,4-tetrahydronaphthalen-1-yl carbamate], the responders at 200 mg/kg in assay [1] (po, dose 200 mg/kg, read-out: MES test (po) efficacy %) is 100%. Further, the response vs control in vivo at 50 mg/kg in assay [2] amounted to 37.8%.

With `NC(=O)O[C@@H]1c2c(I)cccc2CC[C@@H]1O` [Example 28, (1R, 2S)-2-hydroxy-8-iodo-1,2,3,4-tetrahydronaphthalen-1-yl carbamate], the responders at 100 mg/kg in assay [1] (setting [4]) was 100%. In addition, the response vs control in vivo at 50 mg/kg in assay [2] is 42.1%.

On to `NC(=O)O[C@@H]1CCc2cccc(Cl)c2[C@@H]1OC(N)=O` [Example 29, (1S, 2R)-8-chloro-1,2,3,4-tetrahydronaphthalen-1,2-diyldicarbamate], for which the responders at 100 mg/kg in assay [1] (setting [4]) came to 66.6%. Also, in assay [2], the response vs control in vivo at 50 mg/kg stood at 30.3%.

For `NC(=O)O[C@H]1CCc2cccc(Cl)c2[C@H]1OC(N)=O` [Example 30, (1R, 2S)-8-chloro-1,2,3,4-tetrahydronaphthalen-1,2-diyl dicarbamate], the responders at 400 mg/kg in assay [1] (po, dose 400 mg/kg, read-out: MES test (po) efficacy %) is 33.3%. For the same compound, the response vs control in vivo at 50 mg/kg in assay [2] was 28.4%.

With `NC(=O)O[C@@H]1CCc2cccc(I)c2[C@@H]1OC(N)=O` [Example 36, (1S, 2R)-8-iodo-1,2,3,4-tetrahydronaphthalen-1,2-diyl dicarbamate], the responders at 300 mg/kg in assay [1] (setting [4]) was determined as 33.3%. Also, in assay [2], the response vs control in vivo at 50 mg/kg turned out to be 72.2%.

On to `NC(=O)O[C@H]1CCc2cccc(I)c2[C@H]1OC(N)=O` [Example 37, (1R, 2S)-8-iodo-1,2,3,4-tetrahydronaphthalen-1,2-diyl dicarbamate], for which the responders at 300 mg/kg in assay [1] (setting [4]) was 33.3%.

In the case of `NC(=O)O[C@@H]1CCc2ccccc2[C@@H]1OC(N)=O` [Example 38, (1S, 2R)-1,2,3,4-tetrahydronaphthalen-1,2-diyl dicarbamate], in assay [1] (setting [4]), the responders at 100 mg/kg turned out to be 25%.

For the compound `NC(=O)O[C@H]1Cc2cccc(F)c2[C@H]1O` [Example 56, (1R, 2S)-7-fluoro-1-hydroxy-2,3-dihydro-1H-inden-2-yl carbamate], in assay [1] (po), the ED50 (commonly the dose that gives a 50% effect, or the effect in half of the subjects) was found to be 45.6 mg/kg. Besides, the response vs control in vivo at 50 mg/kg in assay [2] is 43.2%.

For the compound `NC(=O)O[C@H]1c2cccc(Cl)c2C[C@H]1O` [Example 62, (1S, 2R)-4-chloro-2-hydroxy-2,3-dihydro-1H-inden-1-yl carbamate], the results for the median effective dose (ED50) in assay [1] (po) and in assay [3] were 53.1 mg/kg and 24.5 mg/kg, respectively.

For `NC(=O)O[C@@H]1Cc2c(Cl)cccc2[C@@H]1O` [Example 68, (1S, 2R)-4-chloro-1-hydroxy-2,3-dihydro-1H-inden-2-yl carbamate], the ED50 in assay [1] (po) came out at 61.2 mg/kg; in assay [3] it was 14.4 mg/kg.

As for `NC(=O)O[C@H]1c2c(F)cccc2C[C@H]1O` [Example 69, (1S, 2R)-7-fluoro-2-hydroxy-2,3-dihydro-1H-inden-1-yl carbamate], the responders at 100 mg/kg in assay [1] (setting [4]) came to 33.3%.

Consider `COCO[C@@H]1c2c(Cl)cccc2C[C@@H]1OC(N)=O` [Example 72, (1R, 2S)-7-chloro-1-(methoxymethoxy)-2,3-dihydro-1H-inden-2-yl carbamate], for which, in assay [2], the response vs control in vivo at 50 mg/kg worked out at 21.4%.

With `COCO[C@H]1Cc2cccc(Cl)c2[C@H]1OC(N)=O` [Example 76, (1R, 2S)-7-chloro-2-(methoxymethoxy)-2,3-dihydro-1H-inden-1-yl carbamate], the responders at 100 mg/kg in assay [1] (setting [4]) is 100%. For the same compound, in assay [2], the response vs control in vivo at 50 mg/kg stood at 59.2%.

`NC(=O)O[C@H]1Cc2cccc(Cl)c2[C@H]1OC(N)=O` [Example 78, (1R, 2S)-7-chloro-2,3-dihydro-1H-inden-1,2-diyl dicarbamate]: the responders at 100 mg/kg in assay [1] (setting [4]) was 33.3%. For the same compound, the response vs control in vivo at 50 mg/kg in assay [2] amounted to 62.3%.
